How the values were obtained:
[1] = Selectivity ratio of IC50 for BACE2 to IC50 for BACE1
Beta-secretase 2 = target: T1, Beta-secretase 2 (Homo sapiens, UniProt Q9Y5Z0); test: Inhibition of BACE2 by FRET assay
T1 sequence (Q9Y5Z0 whole entry): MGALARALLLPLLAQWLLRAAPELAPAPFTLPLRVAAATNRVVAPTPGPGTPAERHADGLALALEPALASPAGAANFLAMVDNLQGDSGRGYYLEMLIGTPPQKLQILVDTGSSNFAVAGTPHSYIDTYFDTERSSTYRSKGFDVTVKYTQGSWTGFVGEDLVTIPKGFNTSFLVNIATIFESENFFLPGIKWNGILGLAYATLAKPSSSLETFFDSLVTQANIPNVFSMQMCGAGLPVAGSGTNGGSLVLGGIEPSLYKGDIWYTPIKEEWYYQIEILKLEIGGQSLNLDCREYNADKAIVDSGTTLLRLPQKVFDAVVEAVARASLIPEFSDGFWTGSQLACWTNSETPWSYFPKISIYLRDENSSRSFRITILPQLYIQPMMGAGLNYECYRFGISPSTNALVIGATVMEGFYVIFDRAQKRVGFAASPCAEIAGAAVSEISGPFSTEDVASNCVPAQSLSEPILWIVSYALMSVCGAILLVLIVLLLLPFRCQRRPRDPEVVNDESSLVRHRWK

Beta-secretase 1 = Beta-secretase 1 (Homo sapiens, UniProt P56817); test: Inhibition of BACE1 by FRET assay
Cathepsin D = Cathepsin D (Homo sapiens, UniProt P07339); test: Inhibition of cathepsin D by FRET assay
Chain of Cathepsin D (P07339 65-162 limits assumed): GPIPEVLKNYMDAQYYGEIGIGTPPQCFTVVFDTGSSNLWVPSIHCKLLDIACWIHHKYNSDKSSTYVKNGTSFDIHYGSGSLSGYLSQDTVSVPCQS
Chain of Cathepsin D (P07339 169-412 limits assumed): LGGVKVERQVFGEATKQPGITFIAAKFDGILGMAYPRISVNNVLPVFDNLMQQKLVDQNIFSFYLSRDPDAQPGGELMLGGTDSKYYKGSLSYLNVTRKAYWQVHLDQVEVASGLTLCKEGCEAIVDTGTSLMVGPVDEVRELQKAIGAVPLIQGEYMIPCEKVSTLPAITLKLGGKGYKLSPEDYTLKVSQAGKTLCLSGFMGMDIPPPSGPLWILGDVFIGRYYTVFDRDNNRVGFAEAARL

Chain of Beta-secretase 1 (P56817 whole entry): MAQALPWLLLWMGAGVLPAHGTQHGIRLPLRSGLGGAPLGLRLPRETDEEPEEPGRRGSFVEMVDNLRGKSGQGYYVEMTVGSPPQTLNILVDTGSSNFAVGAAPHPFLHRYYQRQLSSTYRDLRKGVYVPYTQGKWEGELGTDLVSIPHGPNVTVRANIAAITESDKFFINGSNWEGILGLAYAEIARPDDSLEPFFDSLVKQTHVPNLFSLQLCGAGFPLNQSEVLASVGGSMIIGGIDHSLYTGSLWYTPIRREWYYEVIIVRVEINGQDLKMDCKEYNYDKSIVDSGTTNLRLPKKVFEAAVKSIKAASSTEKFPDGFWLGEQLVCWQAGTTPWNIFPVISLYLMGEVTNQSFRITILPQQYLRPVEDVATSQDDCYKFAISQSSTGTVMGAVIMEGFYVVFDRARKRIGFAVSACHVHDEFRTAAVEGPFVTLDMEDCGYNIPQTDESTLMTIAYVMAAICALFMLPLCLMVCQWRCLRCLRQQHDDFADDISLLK

Work on `CN1C(=O)C(c2ccncc2)(c2cccc(-c3ccccc3)c2)N=C1N` (configuration not stated) yielded a Ratio IC50 [1] of 1.1.
Work on `CN1C(=O)C(c2ccncc2)(c2cccc(-c3cc(F)cc(F)c3)c2)N=C1N` (configuration not stated) yielded a Ratio IC50 [1] of 1, an IC50 (Beta-secretase 2) of 60 nM and an IC50 (Beta-secretase 1) of 60 nM. The IC50 (Cathepsin D) was 34100 nM.
`CN1C(=O)C(c2ccncc2)(c2cccc(-c3cccc(F)c3F)c2)N=C1N` (configuration not stated) showed a Ratio IC50 [1] of 3.3, an IC50 (Beta-secretase 2) of 130 nM and an IC50 (Beta-secretase 1) of 40 nM. It also gave an IC50 (Cathepsin D) of 13100 nM.
Molecule `CN1C(=O)C(c2ccccc2)(c2ccncc2)N=C1N` (configuration not stated) has a Ratio IC50 [1] of 0.8.
`COc1cccc(-c2cccc(C3(c4ccncc4)N=C(N)N(C)C3=O)c2)c1` (configuration not stated) gave a Ratio IC50 [1] of 0.7, an IC50 (Beta-secretase 2) of 20 nM and an IC50 (Beta-secretase 1) of 30 nM. It also gave an IC50 (Cathepsin D) of 12200 nM.
Molecule `CN1C(=O)C(c2ccncc2)(c2cccc(-c3cnccn3)c2)N=C1N` (configuration not stated) has an IC50 (Beta-secretase 2) of 1010 nM.
In the case of `CN1C(=O)C(c2ccncc2)(c2cccc(-c3cccc(OC(F)(F)F)c3)c2)N=C1N` (configuration not stated), the Ratio IC50 [1] is reported as 0.6, the IC50 (Beta-secretase 2) is reported as 140 nM and the IC50 (Beta-secretase 1) is reported as 250 nM. The IC50 (Cathepsin D) was 14100 nM.
Work on `CN1C(=O)C(c2ccncc2)(c2cccc(-c3ccsc3)c2)N=C1N` (configuration not stated) yielded an IC50 (Beta-secretase 2) of 190 nM and an IC50 (Cathepsin D) of 31600 nM.
Molecule `CN1C(=O)C(c2ccncc2)(c2cccc(-c3cccc(C#N)c3)c2)N=C1N` (configuration not stated) has a Ratio IC50 [1] of 1, an IC50 (Beta-secretase 2) of 40 nM and an IC50 (Beta-secretase 1) of 40 nM. The IC50 (Cathepsin D) was 24200 nM.
For `CN1C(=O)[C@](c2ccncc2)(c2cccc(-c3cc(F)ccc3F)c2)N=C1N`, the IC50 (Beta-secretase 2) was 700 nM and the IC50 (Cathepsin D) was 26400 nM.
`CN1C(=O)C(c2ccncc2)(c2cccc(-c3cc(F)ccc3F)c2)N=C1N` (racemic) showed an IC50 (Beta-secretase 2) of 120 nM and an IC50 (Cathepsin D) of 9400 nM.
Molecule `CN1C(=O)C(c2ccncc2)(c2cccc(-c3ccoc3)c2)N=C1N` (configuration not stated) has an IC50 (Beta-secretase 2) of 570 nM and an IC50 (Cathepsin D) of 46800 nM.
`CN1C(=O)C(c2ccncc2)(c2cccc(-c3cccnc3)c2)N=C1N` (configuration not stated) gave a Ratio IC50 [1] of 8.
With `CN1C(=O)C(c2ccncc2)(c2cccc(-c3cccc(F)c3)c2)N=C1N` (configuration not stated) the Ratio IC50 [1] was 1.6, the IC50 (Beta-secretase 2) was 80 nM and the IC50 (Beta-secretase 1) was 50 nM. It also gave an IC50 (Cathepsin D) of 20800 nM.
Work on `CN1C(=O)[C@@](c2ccncc2)(c2cccc(-c3cc(F)ccc3F)c2)N=C1N` yielded an IC50 (Beta-secretase 2) of 100 nM and an IC50 (Cathepsin D) of 5500 nM.
Work on `CN1C(=O)C(c2ccncc2)(c2cccc(-c3cccnc3F)c2)N=C1N` (configuration not stated) yielded a Ratio IC50 [1] of 33, an IC50 (Beta-secretase 2) of 1000 nM and an IC50 (Beta-secretase 1) of 30 nM. It also gave an IC50 (Cathepsin D) of 17400 nM.
